Converted amounts (≈) assume the structure as drawn. Bounds are passed on as bounds.

Data set [1] is described as follows: CLint assessment in human liver microsomes (HLM). The data set is classed as in vitro ADME. As to conditions: 1 μM. The protocol:
After a preincubation with NADPH for 8 minutes, reactions were initiated through the addition of the test compound (final volume 250 μl) and incubated at 37° C. in a water bath for 30 minutes. […] Samples were shaken at 800 rpm for 2 minutes and centrifuged at 4000 rpm for 20 minutes at 4° C. to pellet precipitated protein. The supernatant fraction was diluted 1:5 with deionized water, shaken at 1000 rpm for 2 minutes, and further diluted 1:1 with deionized water. Samples were analyzed by LC-MS/MS. The t1/2 and the CLint of the compounds incubated in the LM, HLM, and HμREL assays as described above were calculated according to the following equations: […] where V (μl/×10^6 cells or mg protein) is the incubation volume (μl) divided by the number of cells (×10^6) or microsomal protein content (mg) in the incubation.

A short description of data set [2]: Aqueous thermodynamic solubility, shake-flask. The data set is classed as physicochemical. As to conditions: aqueous phosphate buffer, 25 °C, pH 7.4, aqueous buffer, thermodynamic from solid, phosphate buffer 0.1 M, pH 7.4, 24 hours. A digest of the protocol: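 After 24 h stirring at 25° C. in pH 7.4 phosphate buffer (0.1 M), solid-free supernatant from two centrifugations was quantified by UPLC/MS/MS after dilution in water. Compound was added as dried material after DMSO removal.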

A further data set deals with CDK1:CCNB1 (Homo sapiens (Human), UniProt P06493). Briefly: NanoBRET assay in MCF-7 cells, CDK1. The data set is classed as cell-based. Conditions: NanoBRET, transfected MCF-7 cells, 2 hours; n = 1 or average; read-out: CDK1 IC50. A digest of the protocol: (§1)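 Intracellular target engagement was measured by NanoBRET ratio (460 nm/610 nm) in live MCF-7 cells transiently carrying CDK4:CCND1 (Tracer K-7, 100 μM stock) or CDK1:CCNB1 (Tracer K-9, 400 μM stock).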
CDK1:CCNB1, sequence (P06493 whole entry): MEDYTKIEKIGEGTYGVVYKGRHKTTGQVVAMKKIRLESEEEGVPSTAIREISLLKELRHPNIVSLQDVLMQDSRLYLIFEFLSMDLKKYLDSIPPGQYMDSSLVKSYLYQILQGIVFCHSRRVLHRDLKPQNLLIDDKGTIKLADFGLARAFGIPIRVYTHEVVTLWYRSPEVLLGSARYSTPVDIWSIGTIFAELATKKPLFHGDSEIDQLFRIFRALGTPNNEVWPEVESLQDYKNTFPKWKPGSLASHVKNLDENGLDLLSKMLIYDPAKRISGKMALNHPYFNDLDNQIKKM
CDK1:CCNB1, sequence (P14635 whole entry partner): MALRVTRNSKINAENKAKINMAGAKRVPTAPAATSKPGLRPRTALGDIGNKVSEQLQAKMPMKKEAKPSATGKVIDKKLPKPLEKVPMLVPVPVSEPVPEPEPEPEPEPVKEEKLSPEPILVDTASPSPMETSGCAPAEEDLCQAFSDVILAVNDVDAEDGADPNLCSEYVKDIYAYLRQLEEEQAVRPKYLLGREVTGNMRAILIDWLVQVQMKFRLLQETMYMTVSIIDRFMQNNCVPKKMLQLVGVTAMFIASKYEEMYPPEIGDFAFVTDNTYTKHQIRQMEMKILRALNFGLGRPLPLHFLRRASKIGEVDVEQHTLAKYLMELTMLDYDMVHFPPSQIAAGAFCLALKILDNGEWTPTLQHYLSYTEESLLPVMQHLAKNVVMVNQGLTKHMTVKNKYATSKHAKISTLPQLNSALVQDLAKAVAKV

Another data set deals with MCF-7 cells. Description: Cellular proliferation EdU assay, MCF-7. The data set is classed as cell-based. As to conditions: Homo sapiens, MCF7, 48 h, EdU assay, two days; read-out: MCF-7 IC50. The procedure, abridged:
(§2)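 MCF-7 (800 cells/well) and OVCAR3 (1200 cells/well) in RPMI with 10% FBS exposed to compounds for two days at 37 °C.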

Data set [3] has as its system NPM phosphorylation (Thr199, CDK2-cyclin E complex). Description: NPM phosphorylation imaging assay in MCF-7 cells. The data set is classed as cell-based. As to conditions: Homo sapiens, 4N DNA cells. A digest of the protocol:
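MCF-7 cells were fixed, permeabilised and immunostained, then imaged for phospho-NPM (Thr199), a CDK2-cyclin E site. Analysis was gated on 4N-DNA cells by Hoechst staining. Signals were normalised to controls and fitted for IC50.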

For another data set, the target named is CDK2:CCNE1 (Homo sapiens (Human), UniProt P24941). Briefly: NanoBRET assay in MCF-7 cells, CDK2. Conditions: transfected MCF-7 cells, 2 hours, n = 1 or average. The data set is classed as cell-based. The procedure, abridged:
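In live MCF-7 cells, compound added followed by NanoBRET TE Tracer K-9 (stock 200 μM) for CDK2, 2 h at 37° C, 5% CO2.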

The test system of data set [4] is POLR2A Ser2 phosphorylation (CDK9). Description: POLR2A Ser2 phosphorylation imaging assay in MCF-7 cells. As to conditions: Homo sapiens, MCF7, 2 h, MCF-7 cells, 2 hours; read-out: POLR2A Ser2 phosphorylation IC50. The data set is classed as cell-based. The procedure, abridged:
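MCF-7 cells were fixed, permeabilised and immunostained for POLR2A phospho-Ser2, then imaged by high-content microscopy. Levels were normalised to controls and IC50 values derived.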

The subject of a further data set is OVCAR3 cells. Briefly: Cellular proliferation EdU assay, OVCAR3. The data set is classed as cell-based, human. As to conditions: Homo sapiens, OVCAR-3, 48 h, EdU assay, two days; read-out: OVCAR3 IC50. The procedure, abridged:
as §2

In another data set the target is CDK4:CCND1 (Homo sapiens (Human), UniProt P11802). Description: NanoBRET assay in MCF-7 cells, CDK4. The data set is classed as cell-based. Conditions: NanoBRET, transfected MCF-7 cells, 2 hours; n = 1 or average; read-out: CDK4 IC50. The procedure, abridged:
as §1

CDK4:CCND1, sequence (P11802 whole entry): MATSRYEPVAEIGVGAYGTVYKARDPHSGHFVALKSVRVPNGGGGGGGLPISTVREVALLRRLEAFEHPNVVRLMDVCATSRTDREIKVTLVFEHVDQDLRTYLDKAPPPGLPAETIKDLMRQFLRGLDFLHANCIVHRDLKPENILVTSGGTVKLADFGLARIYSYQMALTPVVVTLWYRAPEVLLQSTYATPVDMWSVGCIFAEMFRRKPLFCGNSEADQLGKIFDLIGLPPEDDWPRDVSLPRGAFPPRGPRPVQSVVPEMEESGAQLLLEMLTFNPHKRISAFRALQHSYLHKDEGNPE
CDK4:CCND1, sequence (P24385 whole entry partner): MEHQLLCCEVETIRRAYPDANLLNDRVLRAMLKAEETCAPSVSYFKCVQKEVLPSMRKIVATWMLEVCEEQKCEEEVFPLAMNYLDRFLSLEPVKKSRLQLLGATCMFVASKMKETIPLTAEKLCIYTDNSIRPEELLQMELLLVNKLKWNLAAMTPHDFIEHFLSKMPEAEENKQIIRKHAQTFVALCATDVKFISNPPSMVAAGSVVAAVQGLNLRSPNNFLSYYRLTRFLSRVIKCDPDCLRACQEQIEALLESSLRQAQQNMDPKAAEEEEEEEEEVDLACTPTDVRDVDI

The solubility is how much of the substance goes into solution per volume. Read a high solubility as much dissolved substance. By IC50 is commonly meant the point on the concentration scale where inhibition reaches its midpoint. With `CCn1cnc2c(N[C@H]3CCN(S(=O)(=O)NC)C3)nc(-c3cccc4c3CNC4=O)nc21` [Example 1, (S)-3-((9-ethyl-2-(1-oxoisoindolin-4-yl)-9H-purin-6-yl)amino)-N-methylpyrrolidine-1-sulfonamide], in [1], the “HLM CLint” value was above 300 µL/min/mg. For the same compound, in data set [2], the solubility at 24 h was found to be 7 µM (≈ 3.2 µg/mL). Also, the 50% inhibitory concentration (IC50) on CDK1:CCNB1 was 236 nM; in the data set on MCF-7 cells, 2000 nM; in data set [3] (MCF7, 2 h), 551 nM; at CDK2:CCNE1, 17 nM; in [4], 13300 nM; in the data set with OVCAR3 cells, 270 nM. Besides, the IC50 on CDK4:CCND1 was found to be 11900 nM.

With `CCn1cnc2c(N[C@H]3CCN(S(=O)(=O)NC)C3)nc(-c3cccc4c3CC[C@H]4O)nc21` [Example 2, (S)-3-((9-ethyl-2-((R)-1-hydroxy-2,3-dihydro-1H-inden-4-yl)-9H-purin-6-yl)amino)-N-methylpyrrolidine-1-sulfonamide], the “HLM CLint” value in data set [1] is 61.6 µL/min/mg. The same compound had a solubility at 24 h in data set [2] of 55 µM (≈ 25.2 µg/mL). Besides, the IC50 at CDK1:CCNB1 was 904 nM; with MCF-7 cells it was 1360 nM; in data set [3] (MCF7, 2 h) it was 301 nM; against CDK2:CCNE1, 29 nM; in data set [4], 15400 nM; in the data set on OVCAR3 cells it was 404 nM. Besides, the IC50 on CDK4:CCND1 came to 17800 nM.

For the compound `CC[C@H](Nc1nc(N[C@H]2CCN(S(N)(=O)=O)C2)c2ncn(CC)c2n1)[C@@H](C)O` [Example 9, (S)-3-((9-ethyl-2-(((2R,3S)-2-hydroxypentan-3-yl)amino)-9H-purin-6-yl)amino)pyrrolidine-1-sulfonamide], in data set [1], the “HLM CLint” value turned out to be 13.4 µL/min/mg. In addition, in data set [2], the solubility at 24 h was above 1000 µM. The IC50 on CDK1:CCNB1 was 2210 nM; in the data set with MCF-7 cells, 1060 nM; in [3] (MCF7, 2 h), 432 nM; on CDK2:CCNE1, 100 nM; in data set [4], above 30000 nM; in the data set on OVCAR3 cells, 486 nM. Also, the IC50 on CDK4:CCND1 came out at 20200 nM.

`CC[C@H](Nc1nc(N[C@H]2CCN(S(N)(=O)=O)C2)c2ncn(CC)c2n1)C(C)=O` [Example 10, (S)-3-((9-ethyl-2-(((S)-2-oxopentan-3-yl)amino)-9H-purin-6-yl)amino)pyrrolidine-1-sulfonamide]: in [1], the “HLM CLint” value came out at 17.6 µL/min/mg. Besides, the solubility at 24 h in [2] is above 904 µM. For the same compound, the IC50 was 4620 nM on CDK1:CCNB1; 2940 nM with MCF-7 cells; 481 nM in data set [3] (MCF7, 2 h); 100 nM on CDK2:CCNE1; above 30000 nM in data set [4]; 1300 nM with OVCAR3 cells. Besides, the IC50 on CDK4:CCND1 was above 23100 nM.

In the case of `CCNS(=O)(=O)N1CC[C@H](Nc2nc(N[C@@H](CO)C3CC3)nc3c2ncn3C(F)F)C1` [Example 14, (S)-3-((2-(((R)-1-cyclopropyl-2-hydroxyethyl)amino)-9-(difluoromethyl)-9H-purin-6-yl)amino)-N-ethylpyrrolidine-1-sulfonamide], in [1], the “HLM CLint” value was 38 µL/min/mg. Also, the solubility at 24 h in data set [2] worked out at 320 µM (≈ 147 µg/mL). Moreover, the IC50 at CDK1:CCNB1 was 98 nM; with MCF-7 cells it was 111 nM; in data set [3] (MCF7, 2 h), 41 nM; at CDK2:CCNE1, 6 nM; in data set [4], 4200 nM; in the data set on OVCAR3 cells, 51 nM. At CDK4:CCND1, the IC50 was 1000 nM.

`CC(C)n1cnc2c(N[C@H]3CCN(S(C)(=O)=O)C3)nc(NC(CO)C3CCCC3)nc21` (stereo partly drawn) [Example 15, 2-cyclopentyl-2-((9-isopropyl-6-(((S)-1-(methylsulfonyl)pyrrolidin-3-yl)amino)-9H-purin-2-yl)amino)ethan-1-ol]: the “HLM CLint” value in data set [1] is above 300 µL/min/mg. For the same compound, the solubility at 24 h in data set [2] was found to be 132 µM (≈ 59.6 µg/mL). In addition, the IC50 was 1220 nM on CDK1:CCNB1; 918 nM in the data set with MCF-7 cells; 231 nM in data set [3] (MCF7, 2 h); 22 nM at CDK2:CCNE1; above 30000 nM in [4]; 568 nM in the data set with OVCAR3 cells. For the same compound, the IC50 at CDK4:CCND1 came out at 2600 nM.

As to `CC(C)n1cnc2c(N[C@H]3CCN(S(C)(=O)=O)C3)nc(NC(CO)C3CCCO3)nc21` (stereo partly drawn) [Example 16, 2-((9-isopropyl-6-(((S)-1-(methylsulfonyl)pyrrolidin-3-yl)amino)-9H-purin-2-yl)amino)-2-(tetrahydrofuran-2-yl)ethan-1-ol], the “HLM CLint” value in data set [1] was 96.5 µL/min/mg. Also, the solubility at 24 h in data set [2] is above 1000 µM. In addition, the IC50 is 1600 nM on CDK1:CCNB1; 2520 nM in the data set on MCF-7 cells; 368 nM in [3] (MCF7, 2 h); 93 nM against CDK2:CCNE1; above 30000 nM in data set [4]; 964 nM in the data set on OVCAR3 cells. Also, the IC50 at CDK4:CCND1 turned out to be 17200 nM.

Regarding `CC[C@H](Nc1nc(N[C@H]2CCN(S(=O)(=O)NC[C@H]3COCCO3)C2)c2ncn(CC)c2n1)[C@@H](C)O` [Example 23, (S)—N—(((S)-1,4-dioxan-2-yl)methyl)-3-((9-ethyl-2-(((2R,3S)-2-hydroxypentan-3-yl)amino)-9H-purin-6-yl)amino)pyrrolidine-1-sulfonamide], the “HLM CLint” value in [1] was determined as 57.5 µL/min/mg. This compound also yielded a solubility at 24 h in data set [2] of 814 µM (≈ 417 µg/mL). The IC50 at CDK1:CCNB1 was 2600 nM; in the data set on MCF-7 cells, 1950 nM; in data set [3] (MCF7, 2 hours), 484 nM; against CDK2:CCNE1, 57 nM; in data set [4], above 30000 nM; with OVCAR3 cells, 495 nM. Also, at CDK4:CCND1, the IC50 was above 29700 nM.

In the case of `CC[C@H](Nc1nc(N[C@H]2CCN(S(=O)(=O)NC[C@@H]3COCCO3)C2)c2ncn(CC)c2n1)[C@@H](C)O` [Example 25, (S)—N—(((R)-1,4-dioxan-2-yl)methyl)-3-((9-ethyl-2-(((2R,3S)-2-hydroxypentan-3-yl)amino)-9H-purin-6-yl)amino)pyrrolidine-1-sulfonamide], the “HLM CLint” value in [1] is 61.6 µL/min/mg. In data set [2], the solubility at 24 h stood at 912 µM (≈ 468 µg/mL). Besides, the IC50 on CDK1:CCNB1 was 3990 nM; with MCF-7 cells, 1430 nM; in data set [3] (MCF7, 2 hours), 624 nM; against CDK2:CCNE1, 69 nM; in [4] it was above 30000 nM; with OVCAR3 cells, 642 nM. Besides, the IC50 at CDK4:CCND1 is above 29700 nM.

In the case of `CC(C)[C@H](CO)Nc1nc(N[C@H]2CCN(S(=O)(=O)C3CC3)C2)c2ncn(C(C)C)c2n1` [Example 27, (R)-2-((6-(((S)-1-(cyclopropylsulfonyl)pyrrolidin-3-yl)amino)-9-isopropyl-9H-purin-2-yl)amino)-3-methylbutan-1-ol], the “HLM CLint” value in [1] was above 300 µL/min/mg. Besides, the solubility at 24 h in data set [2] is 39.8 µM (≈ 18 µg/mL). Further, the IC50 at CDK1:CCNB1 is 1420 nM; with MCF-7 cells it was 839 nM; in data set [3] (MCF7, 2 hours) it was 267 nM; on CDK2:CCNE1 it was 11 nM; in [4], above 30000 nM; with OVCAR3 cells, 337 nM. Also, the IC50 on CDK4:CCND1 turned out to be 3400 nM.

Regarding `CC(C)[C@H](CO)Nc1nc(N[C@H]2CCN(S(C)(=O)=O)C2)c2ncn(C3CC3)c2n1` [Example 29, (R)-2-((9-cyclopropyl-6-(((S)-1-(methylsulfonyl)pyrrolidin-3-yl)amino)-9H-purin-2-yl)amino)-3-methylbutan-1-ol], in data set [1], the “HLM CLint” value turned out to be 90.5 µL/min/mg. The compound also showed a solubility at 24 h in data set [2] of 71.2 µM (≈ 30.2 µg/mL). The IC50 on CDK1:CCNB1 is 3700 nM; in the data set with MCF-7 cells, 2420 nM; in data set [3] (MCF7, 2 h), 2190 nM; against CDK2:CCNE1 it was 90 nM; in data set [4], above 30000 nM; in the data set with OVCAR3 cells it was 1380 nM. The IC50 on CDK4:CCND1 was above 29700 nM.

These data come from patent publication US20250197425A1, “2,6,9-TRISUBSTITUTED PURINES” (ASTRAZENECA AB, priority 2022, published 2025).
